These results are taken from patent US20230203126A1, “A COMPOSITION COMPRISING S-ARRESTIN PEPTIDES” (WORG PHARMACEUTICALS (HANGZHOU) CO., LTD., priority 2019, published 2023).

Several values for one entry are separate records, joined by “and”; a condition that tells them apart may be missing. Equal entries are not always repeated. No end group written: not given here.

The experiment relates to S-Ag-induced cell activation (IFNy production of LN cells and splenocytes). In words: Ex vivo tolerization experiment (DR3tg mice). The note with it: for reduction of S-Ag-induced cell activation (IFNy) in spleens: dose escalation to 15 nmol per peptide s.c., cocktail vs single peptide, vs control group, two independent experiments (FIG. 7); for reduction of S-Ag-induced cell activation (IFNy) in lymph nodes / reduction of S-Ag-induced cell activation (IFNy) in spleen: single peptide escalating dose s.c., vs PBS; for reduction of S-Ag-induced cell activation (IFNy) in lymph nodes: 10 days after immunization (FIG. 5A, 6A); for reduction of S-Ag-induced cell activation (IFNy) in spleen: 10 days after immunization (FIG. 5B, 6B). It is filed as in vivo. The method, then:
(§1) FIG. 5: 17JK alone induces tolerance towards S-Ag protein in DR3tg mice. Mice were injected subcutaneously in the flank with 0,1 µg/ml, 1 µg/ml and 10 µg/ml 17JK on days -15, -13 and -11, followed by 3 injections of 100 µg/ml on days -8, -6 and -4 (escalating dose regime). On day 0, mice were immunized subcutaneously at the base of the tail with antigen/CFA. Mice were sacrificed 10 days after immunization to measure activation of LN cells and splenocytes upon S-Ag restimulation. IFNy concentration was measured in the culture supernatant as an indication of cell activation. Data represent mean ± SEM of the concentration of IFNy for the PBS-treated mice (black lines) and 17JK-treated mice (grey lines). Two-way ANOVA was used to measure overall treatment effects on T cell activation. Dunnett’s multiple comparisons test was used and significant differences are indicated in the graphs (** p<0.01; *** p<0.001). The % inhibition of IFNy production as compared to the control group is indicated in the graphs. (A) Tolerization against S-Ag in LN. IFNy production expressed as IFNy concentration (pg/ml). (B) Tolerization against S-Ag in spleen. IFNy production expressed as IFN-y concentration (pg/ml). LN, lymph nodes. Data representative of 3 independent experiments.
as §1, with “FIG. 6: 15N3K alone induces” for “FIG. 5: 17JK alone induces”, “10 µg/ml 15N3K on days” for “10 µg/ml 17JK on days”, “lines) and 15N3K-treated mice (grey” for “lines) and 17JK-treated mice (grey”, “the graphs (* p<0.05; **** p<0.0001). The %” for “the graphs (** p<0.01; *** p<0.001). The %”, “Tolerization against SAg in spleen.” for “Tolerization against S-Ag in spleen.”
FIG. 7: Treatment with peptide cocktail ATX975 reduces S-Ag-induced immune cell activation in DR3tg mice more efficiently than treatment with 17JK or 15N3K alone. Mice were injected subcutaneously in the flank with 0.015 nmol, 0.15 nmol and 1.5 nmol of peptide on days -15, -13 and -11 respectively, followed by 3 injections of 15 nmol peptide on days -8, -6 and -4 (dose escalation schedule). For treatment with the cocktail (ATX975) containing 3 peptides, these doses were given per peptide (reaching a total top dose of 45 nmol peptide). On day 0, mice were immunized subcutaneously at the base of the tail with antigen/CFA. Mice were sacrificed 10 days after immunization to measure activation of splenocytes upon SAg restimulation. Data represent mean ± SEM of the IFNy concentration for the control-treated mice (black lines) and peptide-treated mice (grey lines). Two-way ANOVA was used to measure overall treatment effects on T cell activation. Dunnett’s multiple comparisons test was used and significant differences are indicated in the graphs (* p<0.05; ** p<0.01; *** p<0.001; **** p<0.0001 as compared to the control group; ^# p<0.05, ^#### p<0.0001 as compared to the ATX975 group). The % inhibition of IFNy production as compared to the control group is indicated in the graphs. (A) Tolerization against S-Ag […]. IFN-y production expressed as IFN-y concentration (pg/ml). (B) Tolerization against S-Ag in spleen. […]

Take KKKLTFRRDLYFSRVQVYKKK-NH2 [17JK]: the “reduction of S-Ag-induced cell activation (IFNy) in spleens” value is 80% and 52%; the “reduction of S-Ag-induced cell activation (IFNy) in lymph nodes” value was determined as 78%; the “reduction of S-Ag-induced cell activation (IFNy) in spleen” value came out at 84%.

As for KKKVIFKKISRDKSVTIYLGKKK-NH2 [15N3K], the “reduction of S-Ag-induced cell activation (IFNy) in spleens” value came to 74%, the “reduction of S-Ag-induced cell activation (IFNy) in lymph nodes” value is 61% and the “reduction of S-Ag-induced cell activation (IFNy) in spleen” value worked out at 72%.
